In article PMC8344233, “Anticancer activity and toxicity of new quaternary ammonium geldanamycin derivative salts and their mixtures with potentiators” (Journal of Enzyme Inhibition and Medicinal Chemistry, 2021):

Tests used:
HepG2 = test: MTT cytotoxicity assay, HepG2 (1st panel); assay type: cell-based, human; details: for IC50: Homo sapiens, HepG2, ± SD, MTT, 72 h; for selectivity index SI (HepG2): IC50 normal cell line CCD39Lu/IC50 HepG2
Protocol: (§1) Cell survival was measured as the percentage absorbance compared to the control (nontreated cells). […]
(§2) SI indexes were calculated from equation SI = IC50 normal cell line HDF/IC50 respective cancerous cell line (Table 2). A beneficial SI > 1.0 indicates a compound with efficacy against tumor cell greater than the toxicity against normal cells.
(§3) All experiments were carried out with human breast adenocarcinoma (MDA-MB-231 and MCF-7), hepatocellular carcinoma (HepG2), human cervical adenocarcinoma (HeLa) cancer cell lines, and human normal lung fibroblast (CCD39Lu) cell line. The cell line was purchased from the European Collection of Cells Cultures (ECACC, Salisbury, UK), and cultured in DMEM with phenol red supplemented with 10% (v/v) FBS, 1% (v/v) penicillin/streptomycin, and 1% (v/v) L-glutamine at 37 °C, in a humidified atmosphere containing 5% CO2.
(§4) The tested compounds were dissolved in DMSO to the final concentration 10 mM and stored […]
(§5) The cytotoxic effect of the tested compounds was determined by MTT assay. MDA-MB-231, MCF-7, HepG2, HeLa, and CCD39Lu cells were seeded in 96 wells plates at density 2x10^4 cells/well and incubated overnight under cell culture condition. Next, cells were treated with tested compounds at concentrations of 10 µM; 5 µM; 2.5 µM; 1.2 µM; 0.6 µM; 0.3 µM; 0.15 […]
(§6) µM. Moreover, GDM (for MCF-7) and 8 (for MCF-7 and MDA-MB-231) due to high cytotoxicity, were additionally tested at a lower concentration range of 2.5 µM; 1.2 µM; 0.6 µM; 0.3 µM; 0.15µM; 0.07 µM; 0.03 µM. DMSO was used as a control, and the concentration […]
(§7) Tested compounds were added to cells in the medium without phenol red. Cells were incubated 72 h at 37 °C in a humidified atmosphere containing 5% CO2.
(§8) Then, the medium was aspirated and MTT solution at a concentration of 0.59 mg/mL in cell culture medium was added to each well. Plates were incubated for 1.5 hours at 37 °C, and then plates were centrifuged for 3 minutes. The formazan crystals were dissolved in 200 µl DMSO and plates were agitated on a plate shaker at 300 –500 rpm for 10 minutes. Absorbance at 570 nm was measured using a plate reader (Biotek Instruments, Elx -800). Data were normalized to the mean absorption of control cells. All experiments were performed at least three times. […]

MCF-7 = test: MTT cytotoxicity assay, MCF-7 (1st panel); assay type: cell-based, human; details: for IC50: Homo sapiens, MCF7, 72 h, ± SD, MTT, 72 h; for selectivity index SI (MCF-7): IC50 normal cell line CCD39Lu/IC50 MCF-7
Protocol: as §1, §2, §3, §4, §5, §6, §7, §8

CCD39Lu = test: MTT cytotoxicity assay, normal lung fibroblasts CCD39Lu; assay type: cell-based; details: Fibroblast, ± SD, healthy human lung fibroblasts, 72 h, read-out: IC50 CCD39Lu (toxicity in normal cells)
Protocol: as §1, §2, §3, §4, §5, §6, §7, §8

HeLa = test: MTT cytotoxicity assay, HeLa (1st panel); assay type: cell-based, human; details: for IC50: Homo sapiens, HeLa, ± SD, MTT, 72 h; for selectivity index SI (HeLa): IC50 normal cell line CCD39Lu/IC50 HeLa
Protocol: as §1, §2, §3, §4, §5, §6, §7, §8

MDA-MB-231 = test: MTT cytotoxicity assay, MDA-MB-231 (1st panel); assay type: cell-based, human; details: for IC50: Homo sapiens, MDA-MB-231, ± SD, MTT, 72 h; for selectivity index SI (MDA-MB-231): IC50 normal cell line CCD39Lu/IC50 MDA-MB-231
Protocol: as §1, §2, §3, §4, §5, §6, §7, §8

A-549 = test: SRB cytotoxicity assay, A-549 (2nd panel); assay type: cell-based, human
Protocol: (§9) Medium. Human Dermal Fibroblasts cell line (HDF) was cultured in Fibroblast Basal Medium.
(§10) Each medium was supplemented with 10% fetal bovine serum, 1% L-glutamine, and 1% penicillin/streptomycin solution. The cell lines were kept in the incubator at 37◦C. The optimal plating density of cell lines was determined to be 5 × 104. All the cell lines and mediums were obtained from American Type Culture Collection (ATCC) supplied by LGC-Standards. The protein-staining SRB (Sigma-Aldrich) microculture colorimetric assay, developed by the National Cancer Institute (USA) for in vitro antitumor screening was used in this study, to estimate the cell number by providing a sensitive index of total cellular protein content, being linear to cell density. The monolayer cell culture was trypsinized and the cell count was adjusted to 5 × 10^4 cells. To each well of the 96 well microtiter plate, 0.1 mL of the diluted cell suspension (approximately […]) was added. After 24 hours, when a partial monolayer was formed, the supernatant was washed out and 100 μL of six different compound concentrations (0.1, 0.2, 1, 2, 10, and 20 μM) were added to the cells in microtitre plates. The tested compounds were dissolved in DMSO (containing 10 % of water) (100 μL) and the […]
(§11) lines. The cells were exposed to compounds for 72 hours at 37 °C in a humidified atmosphere (90% RH) containing 5% CO2. After that, 25 μL of 50 % trichloroacetic acid was added to the wells and the plates were incubated for 1 hour at 4◦C. The plates were then washed out with the distilled water to remove traces of medium and next dried by the air. The air-dried plates were stained with 100 μL of 0.4% sulforhodamine B (prepared in 1 % acetic acid) and kept for 30 minutes at room temperature. The unbound dye was removed by rapidly washing with 1% […]
(§12) acetic acid and then air dried overnight. The protein-bound dye was dissolved in 100 μL of 10 mM unbuffered Tris base (pH 10.5) for optical density determination at 490 nm. All cytotoxicity experiments were performed three times. Cell survival was measured as the percentage absorbance compared to the control (nontreated cells). Cytarabine (ara-C) and GDM were used as the internal standards. Additionally biological assays were performed in Human Dermal Fibroblasts cell line (HDF) in aim to evaluate cytotoxicity of GDM and its 1-13 analogs in healthy cells. SI indexes were calculated from equation SI = IC50 normal cell line HDF/IC50 respective cancerous cell line (Table 2). A beneficial SI > 1.0 indicates a compound with efficacy against tumor cell greater than the toxicity against normal cells. […]

SKBR-3 = test: SRB cytotoxicity assay, SKBR-3 (2nd panel); assay type: cell-based, human; details: for IC50: Homo sapiens, SK-BR-3, ± SD, SRB, 72 h, mixtures equimolar 1:1; for selectivity index SIHDF (SKBR-3): IC50 normal cell line HDF/IC50 SKBR-3
Protocol: (§13) Human cancer cells SKBR-3 (human breast cancer cell line) and SKOV-3 (ovarian cancer cell line) were cultured in McCoy’s Modified Medium. […]
as §9, §10, §11, §12

physchem = details: water, Solubility SH2O
U-87 = test: SRB cytotoxicity assay, U-87 (2nd panel); assay type: cell-based, human
Protocol: U-87MG cells (glioblastoma cell line) were cultured in Eagle’s Minimal Essential Medium. Human Dermal Fibroblasts cell line (HDF) was cultured in Fibroblast Basal Medium.
as §10, §11, §12

SKOV-3 = test: SRB cytotoxicity assay, SKOV-3 (2nd panel); assay type: cell-based, human; details: for IC50: Homo sapiens, SK-OV-3, ± SD, SRB, 72 h, mixtures equimolar 1:1; for selectivity index SIHDF (SKOV-3): IC50 normal cell line HDF/IC50 SKOV-3
Protocol: as §13, §9, §10, §11, §12

PC-3 = test: SRB cytotoxicity assay, PC-3 (2nd panel); assay type: cell-based, human; details: for IC50: Homo sapiens, PC-3, ± SD, SRB, 72 h, mixtures equimolar 1:1; for selectivity index SIHDF (PC-3): IC50 normal cell line HDF/IC50 PC-3
Protocol: as §9, §10, §11, §12

HDF = test: SRB cytotoxicity assay, human dermal fibroblasts HDF; assay type: cell-based; details: 72 h, ± SD, mixtures equimolar 1:1, read-out: IC50 HDF (toxicity in normal cells)
Protocol: as §9, §10, §11, §12

cancer cell lines = test: Cytotoxicity, values summarised over several cancer cell lines; assay type: cell-based, human; details: Homo sapiens, approximate level over the three cancer cell lines; mixtures equimolar 1:1; read-out: IC50 in SKBR-3, SKOV-3 and PC-3
Protocol: Human cancer cells SKBR-3 (human breast cancer cell line) and SKOV-3 (ovarian cancer cell line) were cultured in McCoy’s Modified Medium. Human cancer cells PC-3 (human prostate cancer cell line) were cultured in F-12K medium, as well as A549 cell line (lung cancer cell line). U-87MG cells (glioblastoma cell line) were cultured in Eagle’s Minimal Essential Medium. Human Dermal Fibroblasts cell line (HDF) was cultured in Fibroblast Basal Medium.
as §10, §11
acetic acid and then air dried overnight. The protein-bound dye was dissolved in 100 μL of 10 mM unbuffered Tris base (pH 10.5) for optical density determination at 490 nm. All cytotoxicity experiments were performed three times. Cell survival was measured as the percentage absorbance compared to the control (nontreated cells). Cytarabine (ara-C) and GDM were used as the internal standards. Additionally biological assays were performed in Human Dermal Fibroblasts cell line (HDF) in aim to evaluate cytotoxicity of GDM and its 1-13 analogs in healthy cells. SI indexes were calculated from equation SI = IC50 normal cell line HDF/IC50 respective cancerous cell line (Table 2). A beneficial SI > 1.0 indicates a compound with efficacy against tumor cell greater than the toxicity against normal cells.
as §3, §4, §5

Row | SMILES | IC50 (HepG2) | selectivity index SI (HepG2) (HepG2) | IC50 (MCF-7) | selectivity index SI (MCF-7) (MCF-7) | IC50 (CCD39Lu) | IC50 (HeLa) | selectivity index SI (HeLa) (HeLa) | IC50 (MDA-MB-231) | selectivity index SI (MDA-MB-231) (MDA-MB-231) | IC50 (SKBR-3) | selectivity index SIHDF (SKBR-3) (SKBR-3) | IC50 (SKOV-3) | selectivity index SIHDF (SKOV-3) (SKOV-3) | IC50 (PC-3) | selectivity index SIHDF (PC-3) (PC-3) | CC50 (HDF) | also measured
1 | CO[C@H]1/C=C\C=C(/C)C(=O)NC2=CC(=O)C(NC3CCN(Cc4ccccc4)CC3)=C(C[C@@H](C)C[C@H](OC)[C@H](O)[C@@H](C)/C=C(\C)[C@@H]1OC(N)=O)C2=O [Compound 5] | 1.63 ± 0.49 µM | 9.39 | 1.84 ± 0.57 µM | 8.32 | 15.3 ± 0.12 µM | 1.56 ± 0.14 µM | 9.81 | 2.28 ± 0.54 µM | 6.71 | – | – | – | – | – | – | – | –
2 | CO[C@H]1/C=C\C=C(/C)C(=O)NC2=CC(=O)C(NC3CCN(C(C)=O)CC3)=C(C[C@@H](C)C[C@H](OC)[C@H](O)[C@@H](C)/C=C(\C)[C@@H]1OC(N)=O)C2=O [Compound 6] | 3.38 ± 0.13 µM | > 2.96 | 0.61 ± 0.14 µM | > 16.39 | > 10 µM | 4.75 ± 0.35 µM | > 2.11 | 3.16 ± 0.89 µM | > 3.16 | – | – | – | – | – | – | – | –
3 | CO[C@H]1/C=C\C=C(/C)C(=O)NC2=CC(=O)C(NC3CCN(S(C)(=O)=O)CC3)=C(C[C@@H](C)C[C@H](OC)[C@H](O)[C@@H](C)/C=C(\C)[C@@H]1OC(N)=O)C2=O [Compound 7] | 1.68 ± 0.32 µM | 7.50 | 0.96 ± 0.51 µM | 13.13 | 12.6 ± 0.21 µM | 1.61 ± 0.61 µM | 7.83 | 2.36 ± 0.35 µM | 5.34 | – | – | – | – | – | – | – | –
4 | CO[C@H]1/C=C\C=C(/C)C(=O)NC2=CC(=O)C(NC3C[N+]4(Cc5ccc([N+](=O)[O-])o5)CCC3CC4)=C(C[C@@H](C)C[C@H](OC)[C@H](O)[C@@H](C)/C=C(\C)[C@@H]1OC(N)=O)C2=O (some centres unmarked) [Compound 11] | 8.86 ± 0.17 µM | > 1.13 | 4.67 ± 2 µM | > 2.14 | > 10 µM | 8.91 ± 3.19 µM | > 1.12 | 3.93 ± 1.6 µM | > 2.54 | 6.49 ± 0.07 µM | 1.22 | 6.04 ± 0.38 µM | 1.31 | 6.22 ± 0.13 µM | 1.27 | 7.91 ± 0.91 µM | IC50 (A-549; Homo sapiens, A549, ± SD, SRB, 72 h): 6.83 ± 0.32 µM; selectivity index SIHDF (A-549) (A-549; IC50 normal cell line HDF/IC50 A-549): 1.16; solubility (physchem): 2300 µg/mL; IC50 (U-87; Homo sapiens, U-87 MG, ± SD, SRB, 72 h): 6.06 ± 0.58 µM; selectivity index SIHDF (U-87) (U-87; IC50 normal cell line HDF/IC50 U-87): 1.31
5 | COc1cccc2c1C(=O)c1c(O)c3c(c(O)c1C2=O)C[C@@](O)(C(=O)CO)C[C@@H]3O[C@H]1C[C@H](N)[C@H](O)[C@H](C)O1 [DOX, doxorubicin, reference compound] | – | – | – | – | – | – | – | – | – | 0.72 ± 0.04 µM | 2.11 | 0.74 ± 0.06 µM | 2.05 | 0.68 ± 0.01 µM | 2.24 | 1.52 ± 0.03 µM | IC50 (cancer cell lines): ~0.7 µM
